PMC11876772 (Materials Today Bio, 2025)

Experiments:
[1] = tested on: TLR7/MyD88/NF-кB and MAPK pathways in BMDCs; format: cell-based, ICR mice
[2] = in vitro; conditions: chicken

Compound: CC(C)Cn1cnc2c(N)nc3ccccc3c21 [IMQ, imiquimod]
- protein expression of TLR7 and MyD88 compared with un-treated BMDCs [1]: induced the high protein expression of TLR7 (P < 0.001) and MyD88 (P < 0.001)
- hemolysis [2]: ~37.5%
